# Source: patent US12030864B2, “Small molecule anticancer agents, combinations and uses thereof” (priority 2018, dated 2024)
# Read-outs that look alike come from different tables or passages of the source.
# Columns and labels:
# [1] = tested on: DR5Long in MDA-MB-468 cell line; assay type: cell-based
# Excerpt: A MDA-MB-468 cell line was engineered to stably express the long form of DR5 (DR5Long) in a tetracycline-inducible manner in order to separate DR5A effects on DR5 protein stability from transcriptional activation.
# [2] = tested on: EGFR, DR4, and DR5 in MDA-MB-468 breast cancer cells; experiment: Immunoblot of cell extracts prepared under non-reducing conditions; assay type: cell-based; details: 24 h, FIG. 16
# Protocol: MDA-MB-468 breast cancer cells were treated for 24 h with the indicated concentrations of DMtcyDTDO and cells were analyzed by immunoblot. Cell extracts were prepared under non-reducing conditions in the presence of 100 mM N-ethylmaleimide to preserve disulfide bonding patterns (FIG. 16). […] The oligomerized forms of DR4 and DR5 represent the activated form of these receptors.
# MDA-MB-468 cells [3] = experiment: Protein synthesis assay; assay type: cell-based
# Protocol: FIG. 11. depicts the inhibition of global protein synthesis upon treatment of MDA-MB-468 cells with tcyDTDO.
# (§1) Cell viability (FIG. 12), proliferation (FIG. 13), and protein synthesis (FIG. 14) assays were performed in MDA-MB-468 cell line in the presence of increasing concentrations of tcyDTDO or DMtcyDTDO.
# (§2) Thus, without being bound by any particular theory, it is speculated that compounds of Formula (I)-(VI) regulate DR5 steady-state protein levels in addition to the observed transcriptional induction.
# MDA-MB-468 cells [4] = experiment: Immunoblot assays; assay type: cell-based; details: for PARP cleavage: MDA-MB-468, single agent, FIG. 15; for responsiveness of the cell line to treatment: MDA-MB-468 TNBC line
# MDA-MB-468 cells [5] = experiment: MTT cell viability assay; assay type: cell-based
# Protocol: MTT cell viability was evaluated using MTT (3-(4,5-dimethylthiazol-2-yl)-2,5-diphenyltetrazolium bromide) assays carried out based on the manufacturer's instructions (kit CGD1, Sigma-Aldrich, St. Louis, MO).
# Cell viability assays were performed in MDA-MB-468 (FIG. 8) and BT474 (FIG. 9) cell lines in the presence of increasing concentrations of tcyDTDO and/or TRAIL using the MTT method. The results were analyzed using the Chou-Talalay method [T. C. Chou, P. Talalay, Generalized equations for the analysis of inhibitions of Michaelis-Menten and higher-order kinetic systems with two or more mutually exclusive and nonexclusive inhibitors, Eur J Biochem, 115 (1981) 207-216; T. C. Chou, P. Talalay, Quantitative analysis of dose-effect relationships: the combined effects of multiple drugs or enzyme inhibitors, Adv Enzyme Regul, 22 (1984) 27-55.] to calculate combination indices (Cis) where CI<1 denotes synergy, CI=1 denotes additivity, and C I>1 denotes antagonism.
# as §1
# MDA-MB-468 cell line = experiment: Cell proliferation assay; assay type: cell-based; details: 24 treatment, FIG. 13
# Protocol: as §1
# [6] = tested on: protein thiolates of MDA-MB-468 cell lysates; experiment: Protein thiolate reactivity assay (BGPD labeling of cell lysates); assay type: biochemical; details: MDA-MB-468 cell lysates treated with compound in molar excess, then BGPD; FIG. 2
# Protocol: To assess tcyDTDO reactivity with protein thiolates, MDA-MB-468 cell lysates were treated with various compounds in sufficient molar excess to block all protein thiolates. A non-selective thiol-reactive biotinylated analog (BGPD, FIG. 2) was then added to quantify free thiolates remaining after the pre-labeling.
# DR5 in MDA-MB-468 cells = experiment: DR5 oligomerization immunoblot; assay type: cell-based; details: FIGS. 6 and 7
# Excerpt: Oligomerization of DR5 was also investigated in MDA-MB-468 cells as shown in FIG. 6 and FIG. 7, which is a magnification of the DR5Long/DR5Short portion of the immunoblot in FIG. 6.
# [7] = tested on: DR5 transcription in HEK293 cells; experiment: DR5 transcriptional reporter construct; assay type: cell-based; details: 5 μM; FIG. 10
# Excerpt: FIG. 10. depicts increases in DR5 transcription by tcyDTDO in HEK293 cells as measured using a transcriptional reporter construct.
# as §2
# BT474 cells = experiment: Immunoblot assays; assay type: cell-based; details: BT474 cancer line
molecule,measurement,setting,value
"O[C@H](CS)[C@H](O)CS (racemic) [Dithiothreitol (DTT), Dithiothreitol]",doxycycline-mediated increase in DR5Long,"[1]; reducing conditions, FIG. 5",did not mimic the effects of tcyDTDO
"CO[C@H]1C[C@@H]2CS(=O)(=O)SC[C@H]2C[C@@H]1OC (racemic) [DMtcyDTDO, (4aS,6S,7S,8aS)- and (4aR,6R,7R,8aR)-6,7-Dimethoxyoctahydrobenzo[d][1,2]dithiine 2,2-dioxide]","oligomerization of EGFR, DR4, and DR5",[2]; 100 mM N-ethylmaleimide,"induces oligomerization of EGFR, DR4, and DR5"
same,DR5 level,[2],upregulates DR5
same,effect on protein synthesis compared to equal doses of tcyDTDO,"MDA-MB-468 cells [3]; 24 treatment, FIG. 14",significantly greater effect
same,PARP cleavage,MDA-MB-468 cells [4],induce PARP cleavage
same,responsiveness of the cell line to treatment,MDA-MB-468 cells [4],highly responsive
same,effect on cell viability compared to equal doses of tcyDTDO,"MDA-MB-468 cells [5]; MDA-MB-468, 24 treatment, FIG. 12",significantly greater effect
same,effect on proliferation compared to equal doses of tcyDTDO,MDA-MB-468 cell line,significantly greater effect
Cyclosporine A [Cyclosporine A (CsA)],doxycycline-mediated increase in DR5Long,[1],did not mimic the effects of tcyDTDO
"CCN1C(=O)C=CC1=O [N-ethylmaleimide (NEM), N-ethylmaleimide, reference compound]",BGPD labeling of free thiolates remaining after pre-labeling,[6],prevented BGPD labeling
Tunicamycin,doxycycline-mediated increase in DR5Long,"[1]; reducing conditions, FIG. 5",did not mimic the effects of tcyDTDO
C/C=C(/C)C(=O)O[C@H]1C(C)=C2[C@H]([C@@H]1OC(=O)CCCCCCC)[C@@](C)(OC(C)=O)C[C@H](OC(=O)CCC)[C@@]1(O)[C@H]2OC(=O)[C@@]1(C)O [Thapsigargin],doxycycline-mediated increase in DR5Long,"[1]; reducing conditions, FIG. 5",did not mimic the effects of tcyDTDO
"CC(C)[C@H](NC(=O)c1ccc2ccccc2n1)C(=O)N[C@@H](CC(=O)O)C(=O)COc1c(F)cccc1F [Q-VD-OPH, reference compound]","effect on tcyDTDO/TRAIL downregulation of EGFR, Akt, phospho-Akt, PDK1",MDA-MB-468 cells [4]; MDA-MB-468 cells,partially reverses
same,effect on tcyDTDO-mediated upregulation of DR5 or the ER stress response,MDA-MB-468 cells [4]; caspase inhibitor added,does not alter
same,effect on PARP cleavage induced by tcyDTDO/TRAIL,"MDA-MB-468 cells [4]; caspase inhibitor added, FIGS. 3, 4",blocked
O=S1(=O)CC2CCCCC2CS1 (stereo not shown) [tcyDTDO],DR5 dimerization and oligomerization,DR5 in MDA-MB-468 cells,increase in DR5 dimerization and oligomerization
same,DR5 transcription,[7],increased DR5 transcription
same,inhibition at 5 µM,"MDA-MB-468 cells [3]; Homo sapiens, 5 μM, FIG. 11, read-out: inhibition of global protein synthesis",> 95%
same,doxycycline-mediated increase in DR5Long,"[1]; reducing conditions, FIG. 5",enhanced
same,BGPD labeling of free thiolates remaining after pre-labeling,[6],did not reduce BGPD labeling
same,PARP cleavage,MDA-MB-468 cells [4],induce PARP cleavage
same,responsiveness of the cell line to treatment,MDA-MB-468 cells [4],highly responsive
same,DR5 expression,MDA-MB-468 cells [4]; immunoblot,increased DR5 expression
same,potency in reducing cancer cell viability,"MDA-MB-468 cells [5]; MTT, FIG. 1, compared with the other compounds profiled",most potent compound identified so far
same,responsiveness of the cell line to treatment,BT474 cells,highly responsive
